Assay results from ChEMBL document CHEMBL5360532, “Current scenario of quinolone hybrids with potential antibacterial activity against ESKAPE pathogens” (Eur J Med Chem, 2023).
Values after ≈ are worked out from the molar mass of the structure shown.

Assays:
Escherichia coli [1] = test: Antibacterial activity against Escherichia coli DSM-1116 assessed as bacterial growth inhibition by agar diffusion assay; assay type: functional
Proteus mirabilis = test: Antibacterial activity against efflux deficient Proteus mirabilis DSM-4479 assessed as bacterial growth inhibition by agar diffusion assay; assay type: functional
Escherichia coli [2] = test: Antibacterial activity against efflux deficient Escherichia coli TolC assessed as bacterial growth inhibition by agar diffusion assay; assay type: functional
Pseudomonas aeruginosa [3] = test: Antibacterial activity against efflux deficient Pseudomonas aeruginosa DSM-30104 assessed as bacterial growth inhibition by agar diffusion assay; assay type: functional
Staphylococcus aureus [4] = test: Antibacterial activity against Staphylococcus aureus Newman assessed as bacterial growth inhibition by agar diffusion assay; assay type: functional
Pseudomonas aeruginosa [5] = test: Antibacterial activity against efflux deficient Pseudomonas aeruginosa PA14 assessed as bacterial growth inhibition by agar diffusion assay; assay type: functional
Escherichia coli [6] = test: Antibacterial activity against Escherichia coli MTCC 1687 assessed as bacterial growth inhibition measured after 24 hrs by microdilution assay; assay type: functional
Klebsiella pneumoniae [7] = test: Antibacterial activity against Klebsiella pneumoniae assessed as zone of inhibition at 250 ug/ml by agar well diffusion assay; assay type: functional; details: read-out: IZ
Klebsiella pneumoniae [8] = test: Antibacterial activity against Klebsiella pneumoniae assessed as bacterial growth inhibition by broth microdilution assay; assay type: functional
Escherichia coli [9] = test: Antibacterial activity against Escherichia coli assessed as zone of inhibition at 50 mg/ml cup plate assay; assay type: functional; details: read-out: IZ
Staphylococcus aureus [10] = test: Antibacterial activity against Staphylococcus aureus MLS16 MTCC 2940 assessed as bacterial growth inhibition measured after 24 hrs by microdilution assay; assay type: functional
Escherichia coli [11] = test: Antibacterial activity against Escherichia coli ATCC 25922 assessed as zone of inhibition at 50 mg/ml by agar diffusion assay; assay type: functional; details: read-out: IZ
Staphylococcus aureus [12] = test: Antibacterial activity against Staphylococcus aureus assessed as bacterial growth inhibition by agar well diffusion assay; assay type: functional, organism-based
[13] = test system: Mycobacterium tuberculosis; test: Antimycobacterial activity against extensive drug Mycobacterium tuberculosis assessed as bacterial growth inhibition by LJ slant assay; assay type: functional
Acinetobacter baumannii [14] = test: Antibacterial activity against Acinetobacter baumannii assessed as bacterial growth inhibition by serial dilution method; assay type: functional
Staphylococcus aureus [15] = test: Antibacterial activity against Staphylococcus aureus assessed as zone of inhibition at 50 mg/ml cup plate assay; assay type: functional; details: read-out: IZ
Pseudomonas aeruginosa [16] = test: Antibacterial activity against Pseudomonas aeruginosa ATCC43288 assessed as bacterial growth inhibition measured after 18 to 24 hrs inhibition by broth microdilution assay; assay type: functional; details: time 18-24 hrs
Escherichia coli [17] = test: Antibacterial activity against Escherichia coli assessed as bacterial growth inhibition by agar cup diffusion assay; assay type: functional
Klebsiella pneumoniae [18] = test: Antibacterial activity against Klebsiella pneumoniae assessed as bacterial growth inhibition measured after 20 hrs by serial dilution method; assay type: functional
Pseudomonas aeruginosa [19] = test: Antibacterial activity against Pseudomonas aeruginosa […] assessed as bacterial growth inhibition measured after 18 to 24 hrs inhibition by broth microdilution assay; assay type: functional; details: time 18-24 hrs
Klebsiella pneumoniae [20] = test: Antibacterial activity against Klebsiella pneumoniae assessed as bacterial growth inhibition by serial dilution method; assay type: functional
Staphylococcus aureus [21] = test: Antibacterial activity against methicillin resistant Staphylococcus aureus ATCC 12493 assessed as bacterial growth inhibition by broth microdilution assay; assay type: functional
Escherichia coli [22] = test: Antibacterial activity against Escherichia coli ATCC35218 assessed as bacterial growth inhibition measured after 18 to 24 hrs inhibition by broth microdilution assay; assay type: functional; details: time 18-24 hrs
Staphylococcus aureus [23] = test: Antibacterial activity against methicillin resistant Staphylococcus aureus assessed as bacterial growth inhibition by microdilution assay; assay type: functional
Enterococcus faecalis [24] = test: Antibacterial activity against Enterococcus faecalis assessed as bacterial growth inhibition by broth microdilution assay; assay type: functional
Escherichia coli [25] = test: Antibacterial activity against Escherichia coli assessed as bacterial growth inhibition by serial dilution method; assay type: functional
Escherichia coli [26] = test: Antibacterial activity against Escherichia coli assessed as zone of inhibition at 50 mg/ml by agar well diffusion assay; assay type: functional; details: read-out: IZ
Staphylococcus aureus [27] = test: Antibacterial activity against Staphylococcus aureus assessed as bacterial growth inhibition measured after 24 hrs by agar cup diffusion assay; assay type: functional
[28] = test system: Mycobacterium tuberculosis; test: Antimycobacterial activity against Mycobacterium tuberculosis H37Rv assessed as bacterial growth inhibition; assay type: functional
Staphylococcus aureus [29] = test: Antibacterial activity Staphylococcus aureus ATCC 25923 assessed as bacterial growth inhibition by broth microdilution assay; assay type: functional
Escherichia coli [30] = test: Antibacterial activity against Escherichia coli assessed as bacterial growth inhibition measured after 20 hrs by serial dilution method; assay type: functional
Staphylococcus aureus [31] = test: Antibacterial activity against Staphylococcus aureus MTCC 737 assessed as bacterial growth inhibition measured after 24 hrs by microdilution assay; assay type: functional
Staphylococcus aureus [32] = test: Antibacterial activity against Staphylococcus aureus assessed as bacterial growth inhibition measured after 20 hrs by serial dilution method; assay type: functional
Staphylococcus aureus [33] = test: Antibacterial activity against Staphylococcus aureus assessed as zone of inhibition at 50 mg/ml by agar well diffusion assay; assay type: functional; details: read-out: IZ
Klebsiella pneumoniae [34] = test: Antibacterial activity against Klebsiella pneumoniae AUMC B-77 assessed as bacterial growth inhibition by agar cup diffusion method; assay type: functional
Staphylococcus aureus [35] = test: Antibacterial activity against Staphylococcus aureus AUMC B-73 assessed as bacterial growth inhibition by agar cup diffusion method; assay type: functional
Staphylococcus aureus [36] = test: Antibacterial activity against methicillin resistant Staphylococcus aureus assessed as bacterial growth inhibition by agar cup diffusion assay; assay type: functional
Klebsiella pneumoniae [37] = test: Antibacterial activity against Klebsiella pneumoniae assessed as bacterial growth inhibition by agar cup diffusion assay; assay type: functional
[38] = test system: Mycobacterium tuberculosis; test: Antimycobacterial activity against Mycobacterium tuberculosis H37Rv assessed as bacterial growth inhibition by LJ slant assay; assay type: functional
Staphylococcus aureus [39] = test: Antibacterial activity against Staphylococcus aureus assessed as zone of inhibition at 250 ug/ml by agar well diffusion assay; assay type: functional; details: read-out: IZ
Escherichia coli [40] = test: Antibacterial activity against Escherichia coli assessed as bacterial growth inhibition by agar well diffusion assay; assay type: functional, organism-based
Staphylococcus aureus [41] = test: Antibacterial activity against Staphylococcus aureus ATCC 25923 assessed as bacterial growth inhibition measured after 16 hrs by broth microdilution assay; assay type: functional
Acinetobacter baumannii [42] = test: Antibacterial activity against Acinetobacter baumannii assessed as bacterial growth inhibition by broth microdilution assay; assay type: functional
Enterococcus faecalis [43] = test: Antibacterial activity against Enterococcus faecalis assessed as zone of inhibition at 50 mg/ml by agar well diffusion assay; assay type: functional; details: read-out: IZ
Pseudomonas aeruginosa [44] = test: Antibacterial activity against Pseudomonas aeruginosa assessed as bacterial growth inhibition by agar well diffusion assay; assay type: functional, organism-based
[45] = test system: Mycobacterium tuberculosis; test: Antimycobacterial activity against multidrug Mycobacterium tuberculosis assessed as bacterial growth inhibition by LJ slant assay; assay type: functional
Streptococcus pneumoniae = test: Antibacterial activity against Streptococcus pneumoniae assessed as zone of inhibition at 50 mg/ml by agar well diffusion assay; assay type: functional; details: read-out: IZ
Pseudomonas aeruginosa [46] = test: Antibacterial activity against Pseudomonas aeruginosa assessed as zone of inhibition at 250 ug/ml by agar well diffusion assay; assay type: functional; details: read-out: IZ
Pseudomonas aeruginosa [47] = test: Antibacterial activity against Pseudomonas aeruginosa assessed as bacterial growth inhibition by agar cup diffusion assay; assay type: functional
Escherichia coli [48] = test: Antibacterial activity against fluoroquinolone Escherichia coli assessed as bacterial growth inhibition by broth microdilution assay; assay type: functional
Escherichia coli [49] = test: Antibacterial activity against Escherichia coli assessed as bacterial growth inhibition by broth microdilution assay; assay type: functional
Pseudomonas aeruginosa [50] = test: Antibacterial activity against Pseudomonas aeruginosa assessed as bacterial growth inhibition measured after 20 hrs by serial dilution method; assay type: functional
Staphylococcus aureus [51] = test: Antibacterial activity against Staphylococcus aureus assessed as bacterial growth inhibition by agar cup diffusion assay; assay type: functional
Staphylococcus aureus [52] = test: Antibacterial activity against methicillin resistant Staphylococcus aureus assessed as bacterial growth inhibition by two fold microdilution assay; assay type: functional
Staphylococcus aureus [53] = test: Antibacterial activity against methicillin sensitive Staphylococcus aureus assessed as bacterial growth inhibition by two fold microdilution assay; assay type: functional
Escherichia coli [54] = test: Antibacterial activity against Escherichia coli assessed as bacterial growth inhibition by two fold microdilution assay; assay type: functional
Klebsiella pneumoniae [55] = test: Antibacterial activity against Klebsiella pneumoniae assessed as bacterial growth inhibition by two fold microdilution assay; assay type: functional

Q: With `N#Cc1c(-c2ccccc2)nc(SCC(=O)N2CCN(c3cc4c(cc3F)c(=O)c(C(=O)O)cn4C3CC3)CC2)[nH]c1=O` as the compound, how does the MIC (Escherichia coli [1]) read?
A: Its MIC is ≤ 0.03 µg/mL.

Q: What about the MIC (Proteus mirabilis) of the same compound?
A: Its MIC is ≤ 0.03 µg/mL.

Q: And the MIC (Escherichia coli [2])?
A: Its MIC is ≤ 0.03 µg/mL.

Q: What about the MIC (Pseudomonas aeruginosa [3]) of the same compound?
A: The MIC was ≤ 0.03 µg/mL.

Q: And the MIC (Staphylococcus aureus [4])?
A: The MIC was ≤ 0.03 µg/mL.

Q: And the MIC (Pseudomonas aeruginosa [5])?
A: The MIC was ≤ 0.03 µg/mL.

Q: Which results are given for `O=C(O)c1cn(C2CC2)c2cc(N3CCNCC3)c(F)cc2c1=O` [CIPROFLOXACIN]?
A: MIC (Escherichia coli [6]): 4.68 µg/mL (≈ 14.1 µM); zone of inhibition at 250 µg/mL (Klebsiella pneumoniae [7]): 17 mm; MIC (Klebsiella pneumoniae [8]): 0.004 µg/mL (≈ 0.0121 µM); zone of inhibition at 50000 µg/mL (Escherichia coli [9]): 13 mm; MIC (Staphylococcus aureus [10]): 4.68 µg/mL (≈ 14.1 µM); zone of inhibition at 50000 µg/mL (Escherichia coli [11]): 26.3 mm; IC50 (Staphylococcus aureus [12]): 17.5 µM; MIC (Staphylococcus aureus [12]): 1.06 µg/mL (≈ 3.2 µM); MIC [13]: ≥ 2 µg/mL; MIC (Acinetobacter baumannii [14]): 0.312 µg/mL (≈ 0.942 µM); zone of inhibition at 50000 µg/mL (Staphylococcus aureus [15]): 11 mm; MIC (Pseudomonas aeruginosa [16]): ≤ 0.03 µg/mL; MIC (Escherichia coli [17]): 1.9 µg/mL (≈ 5.73 µM); MIC (Klebsiella pneumoniae [18]): 0.24 µg/mL (≈ 0.724 µM); MIC (Pseudomonas aeruginosa [19]): ≤ 0.03 µg/mL; MIC (Klebsiella pneumoniae [20]): 0.312 µg/mL (≈ 0.942 µM); MIC (Staphylococcus aureus [21]): 0.49 µg/mL (≈ 1.48 µM); MIC (Escherichia coli [22]): ≤ 0.03 µg/mL; MIC (Staphylococcus aureus [23]): 0.5 µg/mL; MIC (Enterococcus faecalis [24]): 0.72 µg/mL (≈ 2.17 µM); MIC (Escherichia coli [25]): 0.312 µg/mL (≈ 0.942 µM); zone of inhibition at 50000 µg/mL (Escherichia coli [26]): 33 mm; MIC (Staphylococcus aureus [27]): 3.25 µg/mL (≈ 9.81 µM); MIC [28]: 11.2 µg/mL (≈ 34 µM); MIC (Staphylococcus aureus [29]): 4 µg/mL (≈ 12.1 µM); MIC (Escherichia coli [30]): 0.24 µg/mL (≈ 0.724 µM); MIC (Staphylococcus aureus [31]): 4.68 µg/mL (≈ 14.1 µM); MIC (Staphylococcus aureus [32]): 0.24 µg/mL (≈ 0.724 µM); zone of inhibition at 50000 µg/mL (Staphylococcus aureus [33]): 33 mm; MIC (Klebsiella pneumoniae [34]): 3.6 µg/mL (≈ 10.9 µM); MIC (Staphylococcus aureus [35]): 1.6 µg/mL (≈ 4.83 µM); MIC (Staphylococcus aureus [36]): 5.49 µg/mL (≈ 16.6 µM); MIC (Klebsiella pneumoniae [37]): 1.9 µg/mL (≈ 5.73 µM); MIC [38]: ≥ 2 µg/mL; zone of inhibition at 250 µg/mL (Staphylococcus aureus [39]): 17 mm; IC50 (Escherichia coli [40]): 17.5 µM; MIC (Escherichia coli [40]): 1.06 µg/mL (≈ 3.2 µM); MIC (Staphylococcus aureus [41]): 0.78 µg/mL (≈ 2.35 µM); MIC (Acinetobacter baumannii [42]): 0.004 µg/mL (≈ 0.0121 µM); zone of inhibition at 50000 µg/mL (Enterococcus faecalis [43]): 30 mm; IC50 (Pseudomonas aeruginosa [44]): 17.5 µM; MIC (Pseudomonas aeruginosa [44]): 1.06 µg/mL (≈ 3.2 µM); MIC [45]: ≥ 2 µg/mL; zone of inhibition at 50000 µg/mL (Streptococcus pneumoniae): 30 mm; zone of inhibition at 250 µg/mL (Pseudomonas aeruginosa [46]): 17 mm; MIC (Pseudomonas aeruginosa [47]): 8.62 µg/mL (≈ 26 µM); MIC (Escherichia coli [48]): 0.72 µg/mL (≈ 2.17 µM); MIC (Escherichia coli [49]): 0.195 µg/mL (≈ 0.589 µM); MIC (Pseudomonas aeruginosa [50]): 0.24 µg/mL (≈ 0.724 µM); MIC (Staphylococcus aureus [51]): 0.5 µg/mL (≈ 1.51 µM)

Q: Which results are given for `O=C(O)c1cn([C@@H]2C[C@@H]2F)c2cc(N3CCN(Cn4nc(-c5ccncc5)n(Cc5ccccc5)c4=S)CC3)c(F)cc2c1=O`?
A: MIC (Staphylococcus aureus [52]): 0.5 µg/mL (≈ 0.794 µM); MIC (Staphylococcus aureus [53]): 0.5 µg/mL (≈ 0.794 µM); MIC (Escherichia coli [54]): ≤ 0.003 µg/mL; MIC (Klebsiella pneumoniae [55]): ≤ 0.003 µg/mL
